Data from ChEMBL document CHEMBL1147336, “A new antibacterial sesquiterpene from Premna oligotricha” (1993).
Converted amounts (≈) assume the structure as drawn. The source made the active and inactive calls. The rule behind the calls is not given here.

Tests used:
Staphylococcus aureus = assay: Antibacterial activity against Staphylococcus aureus NCTC 6571; type: functional
Enterococcus faecalis = assay: Antibacterial activity against Streptococcus faecalis NCTC 775; type: functional
Bacillus pumilus = assay: Antibacterial activity against Bacillus pumilus NCTC 10327; type: functional
Bacillus subtilis = assay: Antibacterial activity against Bacillus subtilis NCTC 10452; type: functional
Pseudomonas aeruginosa = assay: Antibacterial activity against Pseudomonas aeruginosa NCTC 6750 at 200 ug/ml; type: functional, organism-based
Escherichia coli = assay: Antibacterial activity against Escherichia coli NCTC 9001 at 200 ug/ml; type: functional, organism-based

`CN[C@@H]1[C@H](O[C@H]2[C@H](O[C@H]3[C@H](O)[C@@H](O)[C@H](N=C(N)N)[C@@H](O)[C@@H]3N=C(N)N)O[C@@H](C)[C@]2(O)C=O)O[C@@H](CO)[C@H](O)[C@H]1O.CN[C@@H]1[C@H](O[C@H]2[C@H](O[C@H]3[C@H](O)[C@@H](O)[C@H](N=C(N)N)[C@@H](O)[C@@H]3N=C(N)N)O[C@@H](C)[C@]2(O)C=O)O[C@@H](CO)[C@H](O)[C@H]1O.O=S(=O)(O)O.O=S(=O)(O)O.O=S(=O)(O)O` [STREPTOMYCIN SULFATE] gave an MIC (Staphylococcus aureus) of 3.75 µg/mL, an MIC (Enterococcus faecalis) of 15 µg/mL and an MIC (Bacillus pumilus) of 0.94 µg/mL. It also gave an MIC (Bacillus subtilis) of 3.75 µg/mL.
For `C=C(CC[C@@H]1C(C)(C)CCC[C@]1(C)O)C(C)=O`, the MIC (Staphylococcus aureus) was 50 µg/mL (≈ 210 µM), the MIC (Enterococcus faecalis) was 150 µg/mL (≈ 629 µM) and the Activity (Pseudomonas aeruginosa) was “inactive”. The Activity (Escherichia coli) was “inactive”, the MIC (Bacillus pumilus) was 50 µg/mL (≈ 210 µM) and the MIC (Bacillus subtilis) was 100 µg/mL (≈ 420 µM).
